Experimental data taken from PubChem BioAssay AID2060617 (Molecular Pharmacology Branch, DTP, NCI, 2025).
“And” between values parts separate entries of the source, which are not always exact repeats. Identical values can stand only once.

System: 485368-065-R4-J2-PDC spheroids with HUVEC/MSC, viability
Assay: Anticancer human tumor 485368-065-R4-J2-PDC patient-derived pancreatic carcinoma cell line growth inhibition [CLK]
Settings: for viability, T/C: stronger effect = lower value
How it was run: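 Patient-derived tumor cells grown as complex spheroids with HUVEC endothelial cells and mesenchymal stem cells, treated with drug combinations. Concentrations descend in half-log steps from near clinical Cmax, or from 10 microM if Cmax unknown.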

[1] = curve of first compound, second compound 0.0316 µM
[2] = curve of first compound, second compound 0.1 µM
[3] = curve of first compound, second compound 0.316 µM
[4] = curve of first compound, second compound 1 µM
[5] = curve of first compound, second compound 3.16 µM
[6] = curve of first compound, second compound 10 µM
[7] = second compound 0.0316 µM, first compound 0.0316 µM
[8] = second compound 0.0316 µM, first compound 0.1 µM
[9] = second compound 0.0316 µM, first compound 0.316 µM
[10] = second compound 0.0316 µM, first compound 1 µM
[11] = second compound 0.0316 µM, first compound 3.16 µM
[12] = second compound 0.0316 µM, first compound 10 µM
[13] = second compound 0.1 µM, first compound 0.0316 µM
[14] = second compound 0.1 µM, first compound 0.1 µM
[15] = second compound 0.1 µM, first compound 0.316 µM
[16] = second compound 0.1 µM, first compound 1 µM
[17] = second compound 0.1 µM, first compound 3.16 µM
[18] = second compound 0.1 µM, first compound 10 µM
[19] = second compound 0.316 µM, first compound 0.0316 µM
[20] = second compound 0.316 µM, first compound 0.1 µM
[21] = second compound 0.316 µM, first compound 0.316 µM
[22] = second compound 0.316 µM, first compound 1 µM
[23] = second compound 0.316 µM, first compound 3.16 µM
[24] = second compound 0.316 µM, first compound 10 µM
[25] = second compound 1 µM, first compound 0.0316 µM
[26] = second compound 1 µM, first compound 0.1 µM
[27] = second compound 1 µM, first compound 0.316 µM
[28] = second compound 1 µM, first compound 1 µM
[29] = second compound 1 µM, first compound 3.16 µM
[30] = second compound 1 µM, first compound 10 µM
[31] = second compound 3.16 µM, first compound 0.0316 µM
[32] = second compound 3.16 µM, first compound 0.1 µM
[33] = second compound 3.16 µM, first compound 0.316 µM
[34] = second compound 3.16 µM, first compound 1 µM
[35] = second compound 3.16 µM, first compound 3.16 µM
[36] = second compound 3.16 µM, first compound 10 µM
[37] = second compound 10 µM, first compound 0.0316 µM
[38] = second compound 10 µM, first compound 0.1 µM
[39] = second compound 10 µM, first compound 0.316 µM
[40] = second compound 10 µM, first compound 1 µM
[41] = second compound 10 µM, first compound 3.16 µM
[42] = second compound 10 µM, first compound 10 µM
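Also: spheroids exposed to compounds for seven days.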
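For viability, T/C in this document: 100% = DMSO vehicle control wells.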

C=CC(=O)Nc1cc(Nc2nccc(-c3cn(C)c4ccccc34)n2)c(OC)cc1N(C)CCN(C)C
viability, T/C (compound 0.000949 µM): 109% and 99.5% | viability, T/C (compound 0.003 µM): 97.1% and 97.7% | viability, T/C (compound 0.00949 µM): 97.5% and 83.8% | viability, T/C (compound 0.03 µM): 104% and 97.5% | viability, T/C (compound 0.0949 µM): 110% and 96.7% | viability, T/C (compound 0.3 µM): 107% and 99.8% | IC50 (curve of compound): > 0.3 µM

CC(=O)O[C@H]1C(=O)[C@@]2(C)[C@H]([C@H](OC(=O)c3ccccc3)[C@]3(O)C[C@H](OC(=O)[C@H](O)[C@@H](NC(=O)c4ccccc4)c4ccccc4)C(C)=C1C3(C)C)[C@]1(OC(C)=O)CO[C@@H]1C[C@@H]2O + CNC(=O)c1ccc(Nc2nc(OC3CCCC3)c3c(-c4ccc5nc(C)oc5c4)c[nH]c3n2)c(OC)c1
IC50 [1]: > 10 µM | IC50 [2]: > 10 µM | IC50 [3]: > 10 µM | IC50 [4]: > 10 µM | IC50 [5]: > 10 µM | IC50 [6]: > 10 µM | viability, T/C [7]: 63.4% | viability, T/C [8]: 49.2% | viability, T/C [9]: 55.9% | viability, T/C [10]: 62.6% | viability, T/C [11]: 56.5% | viability, T/C [12]: 55.8% | viability, T/C [13]: 59.1% | viability, T/C [14]: 66.3% | viability, T/C [15]: 60.4% | viability, T/C [16]: 56.7% | viability, T/C [17]: 55.2% | viability, T/C [18]: 76.5% | viability, T/C [19]: 76.3% | viability, T/C [20]: 79.7% | viability, T/C [21]: 85.2% | viability, T/C [22]: 85.6% | viability, T/C [23]: 86.6% | viability, T/C [24]: 102% | viability, T/C [25]: 73.8% | viability, T/C [26]: 82.2% | viability, T/C [27]: 81.6% | viability, T/C [28]: 83.5% | viability, T/C [29]: 90.5% | viability, T/C [30]: 91.9% | viability, T/C [31]: 74.4% | viability, T/C [32]: 80.1% | viability, T/C [33]: 86.4% | viability, T/C [34]: 78.6% | viability, T/C [35]: 88% | viability, T/C [36]: 88.9% | viability, T/C [37]: 67.5% | viability, T/C [38]: 78.8% | viability, T/C [39]: 73.9% | viability, T/C [40]: 77.5% | viability, T/C [41]: 82.4% | viability, T/C [42]: 95.4%

CC(=O)O[C@H]1C(=O)[C@@]2(C)[C@H]([C@H](OC(=O)c3ccccc3)[C@]3(O)C[C@H](OC(=O)[C@H](O)[C@@H](NC(=O)c4ccccc4)c4ccccc4)C(C)=C1C3(C)C)[C@]1(OC(C)=O)CO[C@@H]1C[C@@H]2O
viability, T/C (compound 0.0316 µM): 58.2% and 59.8% | viability, T/C (compound 0.1 µM): 50.1% and 56.1% | viability, T/C (compound 0.316 µM): 49% and 52.2% | viability, T/C (compound 1 µM): 48.5% and 43.6% | viability, T/C (compound 3.16 µM): 49.9% and 52.5% | viability, T/C (compound 10 µM): 48.8% and 65.5%

COc1ccc([C@@H](O)c2cc(-c3ncnc4cc(N5CCOCC5)ccc34)c(F)cc2Cl)nn1 + CNC(=O)c1ccc(Nc2nc(OC3CCCC3)c3c(-c4ccc5nc(C)oc5c4)c[nH]c3n2)c(OC)c1
IC50 [1]: > 10 µM | IC50 [2]: > 10 µM | IC50 [3]: > 10 µM | IC50 [4]: > 10 µM | IC50 [5]: > 10 µM | IC50 [6]: > 10 µM | viability, T/C [7]: 84.1% | viability, T/C [8]: 96.7% | viability, T/C [9]: 96.1% | viability, T/C [10]: 103% | viability, T/C [11]: 122% | viability, T/C [12]: 83.7% | viability, T/C [13]: 86.5% | viability, T/C [14]: 99.7% | viability, T/C [15]: 95.1% | viability, T/C [16]: 103% | viability, T/C [17]: 96.6% | viability, T/C [18]: 87.6% | viability, T/C [19]: 82.2% | viability, T/C [20]: 77.8% | viability, T/C [21]: 86.6% | viability, T/C [22]: 73.6% | viability, T/C [23]: 81.5% | viability, T/C [24]: 66.5% | viability, T/C [25]: 69.8% | viability, T/C [26]: 70.9% | viability, T/C [27]: 72.1% | viability, T/C [28]: 67.6% | viability, T/C [29]: 65.5% | viability, T/C [30]: 59.2% | viability, T/C [31]: 68.3% | viability, T/C [32]: 62.7% | viability, T/C [33]: 68.8% | viability, T/C [34]: 57% | viability, T/C [35]: 54.9% | viability, T/C [36]: 51.4% | viability, T/C [37]: 63.7% | viability, T/C [38]: 70.4% | viability, T/C [39]: 65.4% | viability, T/C [40]: 57.5% | viability, T/C [41]: 54.8% | viability, T/C [42]: 50.1%

CCN1CCN(Cc2ccc(Nc3ncc(F)c(-c4cc(F)c5nc(C)n(C(C)C)c5c4)n3)nc2)CC1
viability, T/C (compound 0.00316 µM): 91.1% and 106% | viability, T/C (compound 0.01 µM): 114% and 96.1% | viability, T/C (compound 0.0316 µM): 115% and 116% | viability, T/C (compound 0.1 µM): 140% and 113% | viability, T/C (compound 0.316 µM): 128% and 129% | viability, T/C (compound 1 µM): 117% and 116% | IC50 (curve of compound): > 1 µM
